These results are taken from patent publication US20260356856A1, “KRAS G12S AND G12C INHIBITORS” (MIRATI THERAPEUTICS, INC., priority 2023, published 2026).

SMILES strings stand for the structures.

One assay deals with T1, KRas G12C (Homo sapiens, UniProt P01116, G12C).
T1 construct: Biotinylated KRas (corresponding to amino acids 1-169, produced at Accelegan Inc.); biotin (biotinylated); purchased Accelegan Inc
Nature of the assay: KRas binding assay, TR-FRET displacement of Cy5 labelled tracer. To be noted: 60-minute incubation at room temperature, 1% DMSO, pH 7.5. An outline of the steps:
(§1)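 Final conditions: 1% DMSO, pH 7.5 HEPES buffer, 60 min, room temperature. Protein: biotin-KRas 1-169 with terbium streptavidin. Output: IC50, four-parameter fit of POC.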

A further assay deals with T2, KRas G12S (Homo sapiens, UniProt P01116, G12S).
T2 construct: Biotinylated KRas (corresponding to amino acids 1-169, produced at Accelegan Inc.); biotin (biotinylated); purchased Accelegan Inc
T2 sequence (P01116 1-169 isoform P01116-2 G12S): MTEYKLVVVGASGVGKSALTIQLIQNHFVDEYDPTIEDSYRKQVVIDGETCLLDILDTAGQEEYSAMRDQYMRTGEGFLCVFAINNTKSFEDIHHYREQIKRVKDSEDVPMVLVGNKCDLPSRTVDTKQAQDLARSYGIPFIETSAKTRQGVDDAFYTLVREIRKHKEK
The description is as above. To be noted: 60-minute incubation at room temperature, 1% DMSO, pH 7.5. A digest of the protocol:
as §1

The next assay concerns the target T3, KRas WT (Homo sapiens, UniProt P01116).
T3 construct: Biotinylated KRas (corresponding to amino acids 1-169, produced at Accelegan Inc.); biotin (biotinylated); purchased Accelegan Inc
The assay is described as above. To be noted: 60-minute incubation at room temperature, 1% DMSO, pH 7.5. An outline of the steps: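 Compound competes with tracer for biotin-labelled KRas (amino acids 1-169) bound to terbium-streptavidin. Incubation runs 60 minutes at room temperature, final DMSO 1%. IC50 values derive from a 4-parameter fit.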

In assay [1] the target is T4, KRas-mediated phosphorylation of ERK in MKN1 cells (Homo sapiens, UniProt P01116).
T4 construct: pERK HTRF read-out
T4 sequence (P01116 1-188 isoform P01116-2): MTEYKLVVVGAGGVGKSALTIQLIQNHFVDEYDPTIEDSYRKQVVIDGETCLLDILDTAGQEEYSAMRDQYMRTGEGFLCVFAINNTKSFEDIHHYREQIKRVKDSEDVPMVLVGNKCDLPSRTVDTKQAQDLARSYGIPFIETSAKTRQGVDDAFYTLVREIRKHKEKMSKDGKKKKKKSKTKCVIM
The assay is described as follows: Inhibition of KRas-mediated phosphorylation of ERK (HTRF), MKN1 cells. The following applies: MKN1 cells (KRas WT); HTRF pERK; 3 h incubation. Format: cell-based. The protocol:
Inhibition of KRas Phosphorylation of ERK (HTRF) by Exemplary Compounds of Formula (Ia) or (Ib)
Cisbio HTRF Advanced pERK Assay Catalog #64AERPEH • Cells: MKN1, PSN1 • Procedure: • 1. Day 1: Seed 6,000 cells/well −25 μl/well in 384-well white solid bottom plate; RPM1_10% FBS. Incubate overnight at 37 °C/5% CO2. • 2.
(In general: In TR-FRET formats the signal depends on donor and acceptor labels being close together.)

Assay [2] addresses T5, KRas-mediated phosphorylation of ERK in A549 cells (Homo sapiens, UniProt P01116, G12S).
T5 construct: pERK HTRF read-out
The assay is described as follows: Inhibition of KRas-mediated phosphorylation of ERK (HTRF), A549 cells. The format is cell-based. The following applies: HTRF pERK, 3 h incubation.

Assay [3] has as its target T6, KRas-mediated phosphorylation of ERK in H358 cells (Homo sapiens, UniProt P01116, G12C).
T6 construct: pERK HTRF read-out
Nature of the assay: Inhibition of KRas-mediated phosphorylation of ERK (HTRF), H358 cells. Format: cell-based. The following applies: HTRF pERK, 3 h incubation.

T1 sequence (P01116 1-169 isoform P01116-2 G12C): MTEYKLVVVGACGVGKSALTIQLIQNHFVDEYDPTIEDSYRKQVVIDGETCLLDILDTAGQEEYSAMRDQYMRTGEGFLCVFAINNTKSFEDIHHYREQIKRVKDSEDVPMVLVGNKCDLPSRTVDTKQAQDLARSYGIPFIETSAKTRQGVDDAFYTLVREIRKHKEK
T6 sequence (P01116 1-188 isoform P01116-2 G12C): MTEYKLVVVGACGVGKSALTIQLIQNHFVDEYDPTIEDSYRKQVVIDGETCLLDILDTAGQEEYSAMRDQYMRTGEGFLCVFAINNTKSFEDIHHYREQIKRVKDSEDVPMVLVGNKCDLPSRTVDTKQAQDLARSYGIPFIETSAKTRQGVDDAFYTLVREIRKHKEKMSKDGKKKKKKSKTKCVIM
T5 sequence (P01116 1-188 isoform P01116-2 G12S): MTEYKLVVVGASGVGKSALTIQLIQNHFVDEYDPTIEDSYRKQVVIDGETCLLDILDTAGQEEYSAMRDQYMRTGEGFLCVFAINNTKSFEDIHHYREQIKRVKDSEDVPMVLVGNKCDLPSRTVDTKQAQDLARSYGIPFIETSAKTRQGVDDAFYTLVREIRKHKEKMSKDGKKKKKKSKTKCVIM
T3 sequence (P01116 1-169 isoform P01116-2): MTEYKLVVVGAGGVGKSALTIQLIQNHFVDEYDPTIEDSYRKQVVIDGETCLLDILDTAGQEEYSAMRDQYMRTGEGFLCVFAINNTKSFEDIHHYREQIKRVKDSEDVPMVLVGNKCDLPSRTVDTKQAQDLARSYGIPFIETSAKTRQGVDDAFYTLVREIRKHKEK

As a reminder, the IC50 is the concentration needed to halve the response being measured. Consider `CCc1c(F)ccc2cc(O)cc(-c3ncc4c(N5C[C@@H]6C[C@@H](C(=O)n7ccc(C)n7)[C@@H]6C5)nc(OC[C@@]56CCCN5C[C@H](F)C6)nc4c3F)c12` [Example 162, ((1R,5R,6R)-3-(7-(8-ethyl-7-fluoro-3-hydroxynaphthalen-1-yl)-8-fluoro-2-(((2R,7aS)-2-fluorotetrahydro-1H-pyrrolizin-7a(5H)-yl)methoxy)pyrido[4,3-d]pyrimidin-4-yl)-3-azabicyclo[3.2.0]heptan-6-yl)(3-methyl-1H-pyrazol-1-yl)methanone], for which the IC50 was 673 nM at KRas G12C; 491 nM at KRas G12S; 1050 nM at KRas WT; over 10000 nM in assay [1]; 6480 nM in assay [2]; over 10000 nM in assay [3].
On to `CCc1c(F)ccc2cc(O)cc(-c3ncc4c(N(CC)CCCC(=O)n5ccc(C)n5)nc(OC[C@@]56CCCN5C[C@H](F)C6)nc4c3F)c12` [Example 164, 4-(ethyl(7-(8-ethyl-7-fluoro-3-hydroxynaphthalen-1-yl)-8-fluoro-2-(((2R,7aS)-2-fluorotetrahydro-1H-pyrrolizin-7a(5H)-yl)methoxy)pyrido[4,3-d]pyrimidin-4-yl)amino)-1-(3-methyl-1H-pyrazol-1-yl) butan-1-one], for which the IC50 on KRas G12C was determined as 5 nM; on KRas G12S, 8 nM; on KRas WT, 103 nM; in assay [1], 2210 nM; in assay [2] it was 50 nM; in assay [3], 999 nM.
As to `CCc1c(F)ccc2cc(O)cc(-c3ncc4c(N(CCCC(=O)n5ccc(C)n5)C5CC5)nc(OC[C@@]56CCCN5C[C@H](F)C6)nc4c3F)c12` [Example 165, 4-(cyclopropyl(7-(8-ethyl-7-fluoro-3-hydroxynaphthalen-1-yl)-8-fluoro-2-(((2R,7aS)-2-fluorotetrahydro-1H-pyrrolizin-7a(5H)-yl)methoxy)pyrido[4,3-d]pyrimidin-4-yl)amino)-1-(3-methyl-1H-pyrazol-1-yl) butan-1-one], the IC50 on KRas G12C stood at 2 nM; at KRas G12S it was 4 nM; on KRas WT, 52 nM; in assay [1], 226 nM; in assay [2], 62 nM; in assay [3], 450 nM.
Regarding `CCc1c(F)ccc2cc(O)cc(-c3ncc4c(N5CCCC(C(=O)n6ccc(C)n6)CC5)nc(OCC5(CN(C)C)CC5)nc4c3F)c12` (stereo not drawn) [Example 167, (1-(2-((1-((dimethylamino)methyl)cyclopropyl)methoxy)-7-(8-ethyl-7-fluoro-3-hydroxynaphthalen-1-yl)-8-fluoropyrido[4,3-d]pyrimidin-4-yl)azepan-4-yl)(3-methyl-1H-pyrazol-1-yl)methanone], the IC50 on KRas G12C came out at 94 nM; at KRas G12S, 29 nM; on KRas WT, 528 nM; in assay [1], 3050 nM; in assay [2], 326 nM; in assay [3], 5100 nM.
On to `Cc1ccn(C(=O)C2CCCN(c3nc(OC[C@@]45CCCN4C/C(=C\F)C5)nc4c(F)c(-c5ccc(F)c6sc(N)c(C#N)c56)c(Cl)cc34)CC2)n1` (stereo partly drawn) [Example 175, 2-amino-4-(6-chloro-8-fluoro-2-(((S,Z)-2-(fluoromethylene)tetrahydro-1H-pyrrolizin-7a(5H)-yl)methoxy)-4-(4-(3-methyl-1H-pyrazole-1-carbonyl)azepan-1-yl)quinazolin-7-yl)-7-fluorobenzo[b]thiophene-3-carbonitrile], for which the IC50 on KRas G12C is 9 nM; at KRas G12S, 8 nM; at KRas WT, 16 nM; in assay [1], 177 nM; in assay [2], 6 nM; in assay [3] it was 11 nM.
As for `Cc1ccn(C(=O)CCN(C)c2nc(OC[C@@]34CCCN3C[C@H](F)C4)nc3c(F)c(-c4ccc(F)c5sc(N)c(C#N)c45)c(Cl)cc23)n1` [Example 176, 2-amino-4-(6-chloro-8-fluoro-2-(((2R,7aS)-2-fluorotetrahydro-1H-pyrrolizin-7a(5H)-yl)methoxy)-4-(methyl(3-(3-methyl-1H-pyrazol-1-yl)-3-oxopropyl)amino)quinazolin-7-yl)-7-fluorobenzo[b]thiophene-3-carbonitrile], the IC50 at KRas G12C amounted to 3 nM; at KRas G12S, 5 nM; on KRas WT, 12 nM; in assay [1], 250 nM; in assay [2] it was 388 nM; in assay [3] it was 295 nM.
For the molecule `Cc1ccn(C(=O)CCNc2nc(OC[C@@]34CCCN3C[C@H](F)C4)nc3c(F)c(-c4ccc(F)c5sc(N)c(C#N)c45)c(Cl)cc23)n1` [Example 177, 2-amino-4-(6-chloro-8-fluoro-2-(((2R,7aS)-2-fluorotetrahydro-1H-pyrrolizin-7a(5H)-yl)methoxy)-4-((3-(3-methyl-1H-pyrazol-1-yl)-3-oxopropyl)amino)quinazolin-7-yl)-7-fluorobenzo[b]thiophene-3-carbonitrile], the IC50 on KRas G12C turned out to be 2 nM; on KRas G12S it was 4 nM; at KRas WT, 9 nM; in assay [1], 1250 nM; in assay [2], 227 nM; in assay [3], 1110 nM.
Regarding `Cc1ccn(C(=O)C2CC3CN(c4nc(OC[C@@]56CCCN5C[C@H](F)C6)nc5c(F)c(-c6ccc(F)c7sc(N)c(C#N)c67)c(Cl)cc45)CC32)n1` (stereo partly drawn) [Example 178, 2-amino-4-(6-chloro-8-fluoro-2-(((2R,7aS)-2-fluorotetrahydro-1H-pyrrolizin-7a(5H)-yl)methoxy)-4-(6-(3-methyl-1H-pyrazole-1-carbonyl)-3-azabicyclo[3.2.0]heptan-3-yl)quinazolin-7-yl)-7-fluorobenzo[b]thiophene-3-carbonitrile], the IC50 stood at 13 nM on KRas G12C; 15 nM on KRas G12S; 44 nM at KRas WT; 356 nM in assay [1]; 108 nM in assay [2]; 226 nM in assay [3].
Turning to `Cc1ccn(C(=O)C2C[C@@H]3CN(c4nc(OC[C@@]56CCCN5C[C@H](F)C6)nc5c(F)c(-c6ccc(F)c7sc(N)c(C#N)c67)c(Cl)cc45)C[C@@H]3C2)n1` (stereo partly drawn) [Example 180, 2-amino-4-(6-chloro-8-fluoro-2-(((2R,7aS)-2-fluorotetrahydro-1H-pyrrolizin-7a(5H)-yl)methoxy)-4-((3aR,6aS)-5-(3-methyl-1H-pyrazole-1-carbonyl)hexahydrocyclopenta[c]pyrrol-2 (1H)-yl)quinazolin-7-yl)-7-fluorobenzo[b]thiophene-3-carbonitrile], the IC50 at KRas G12C is 26 nM; on KRas G12S, 4 nM; on KRas WT it was 67 nM; in assay [1], 441 nM; in assay [2], 27 nM; in assay [3] it was 232 nM.
As to `Cc1ccn(C(=O)[C@@H]2C[C@H]2CNc2nc(OC[C@@]34CCCN3C[C@H](F)C4)nc3c(F)c(-c4ccc(F)c5sc(N)c(C#N)c45)c(Cl)cc23)n1` [Example 181, 2-amino-4-(6-chloro-8-fluoro-2-(((2R,7aS)-2-fluorotetrahydro-1H-pyrrolizin-7a(5H)-yl)methoxy)-4-((((trans)-2-(3-methyl-1H-pyrazole-1-carbonyl)cyclopropyl)methyl)amino)quinazolin-7-yl)-7-fluorobenzo[b]thiophene-3-carbonitrile], the 50% inhibitory concentration (IC50) on KRas G12C was 10 nM; at KRas G12S it was 9 nM; at KRas WT it was 17 nM; in assay [1] it was 111 nM; in assay [2], 15 nM; in assay [3], 71 nM.
Turning to `N#Cc1c(N)sc2c(F)ccc(-c3c(Cl)cc4c(N5CCN(S(=O)(=O)n6cncn6)CC5)nc(OC[C@@]56CCCN5C[C@H](F)C6)nc4c3F)c12` [Example 186, 4-(4-(4-((1H-1,2,4-triazol-1-yl)sulfonyl)piperazin-1-yl)-6-chloro-8-fluoro-2-(((2R,7aS)-2-fluorotetrahydro-1H-pyrrolizin-7a(5H)-yl)methoxy)quinazolin-7-yl)-2-amino-7-fluorobenzo[b]thiophene-3-carbonitrile], the IC50 at KRas G12C was found to be 136 nM; at KRas G12S, 156 nM; at KRas WT it was 32 nM; in assay [1], 184 nM; in assay [2] it was 2830 nM; in assay [3], 1120 nM.
Take `CN(C)c1ccn(C(=O)C2CCCN(c3nc(OC[C@@]45CCCN4C[C@H](F)C5)nc4c(F)c(-c5ccc(F)c6sc(N)c(C#N)c56)c(Cl)cc34)CC2)n1` (stereo partly drawn) [Example 188, 2-amino-4-(6-chloro-4-(4-(3-(dimethylamino)-1H-pyrazole-1-carbonyl)azepan-1-yl)-8-fluoro-2-(((2R,7aS)-2-fluorotetrahydro-1H-pyrrolizin-7a(5H)-yl)methoxy)quinazolin-7-yl)-7-fluorobenzo[b]thiophene-3-carbonitrile]: the IC50 at KRas G12C worked out at 8 nM; on KRas G12S, 13 nM; on KRas WT, 26 nM; in assay [1], 140 nM; in assay [2], 39 nM; in assay [3] it was 9 nM.
